From patent US8173689B2 (Novartis AG, priority 2006, dated 2012)
Read-outs that look alike come from different tables or passages of the source.

Legend:
[1] = molecular target: T1, cytoplasmic domain of the human CSF-1R (Homo sapiens, UniProt P07333); assay: In vitro kinase assay for colony stimulating factor-1 receptor (AlphaScreen); type: biochemical; conditions: tested at about 1 μM; for inhibition at 1 µM: read-out: CSF-1R percent inhibition
T1 construct: Recombinant protein corresponding to the cytoplasmic domain of the human CSF-1R; purchased Invitrogen Corporation, Carlsbad, Calif; PV3249
T1 sequence (P07333 539-972 limits assumed): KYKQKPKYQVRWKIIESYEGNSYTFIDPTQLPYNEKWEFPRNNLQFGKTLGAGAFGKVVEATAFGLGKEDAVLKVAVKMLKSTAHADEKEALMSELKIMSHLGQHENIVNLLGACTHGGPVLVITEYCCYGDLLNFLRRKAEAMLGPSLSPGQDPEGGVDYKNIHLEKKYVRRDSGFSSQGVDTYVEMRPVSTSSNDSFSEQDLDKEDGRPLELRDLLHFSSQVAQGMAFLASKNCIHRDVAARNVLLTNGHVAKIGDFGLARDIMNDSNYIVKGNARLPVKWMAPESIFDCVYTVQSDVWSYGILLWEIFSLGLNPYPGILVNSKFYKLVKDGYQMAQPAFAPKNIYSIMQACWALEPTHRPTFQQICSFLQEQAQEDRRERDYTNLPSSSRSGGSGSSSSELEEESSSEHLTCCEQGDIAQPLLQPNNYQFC
In short: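 Kinase reaction used 4 nM recombinant cytoplasmic domain at 1 μM ATP in 50 mM Hepes pH 7.5 with 5 mM MgCl2, 10 mM MnCl2, 0.1% BSA, 1.0 mM DTT and 0.01% Tween 80. Compounds were serially diluted 3-fold from 25 μM. Phosphopeptide was detected by AlphaScreen, PT66 anti-phosphotyrosine acceptor plus streptavidin donor beads, read after overnight incubation.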

[2] = molecular target: T2, full-length human CSF-1R receptor (Homo sapiens, UniProt P07333); assay: In vitro inhibition of CSF-1R receptor tyrosine phosphorylation in transfected HEK293H cells stimulated with MCSF; type: cell-based; conditions: tested at about 1 μM; for inhibition at 1 µM: HEK293-H, read-out: pCSF1R percent inhibition
T2 construct: transfected with the full-length human CSF-1R receptor cloned in house; expressed in transfected cells; host or cells: HEK293H (Invitrogen Cat. #11631017)
T2 sequence (P07333 20-972): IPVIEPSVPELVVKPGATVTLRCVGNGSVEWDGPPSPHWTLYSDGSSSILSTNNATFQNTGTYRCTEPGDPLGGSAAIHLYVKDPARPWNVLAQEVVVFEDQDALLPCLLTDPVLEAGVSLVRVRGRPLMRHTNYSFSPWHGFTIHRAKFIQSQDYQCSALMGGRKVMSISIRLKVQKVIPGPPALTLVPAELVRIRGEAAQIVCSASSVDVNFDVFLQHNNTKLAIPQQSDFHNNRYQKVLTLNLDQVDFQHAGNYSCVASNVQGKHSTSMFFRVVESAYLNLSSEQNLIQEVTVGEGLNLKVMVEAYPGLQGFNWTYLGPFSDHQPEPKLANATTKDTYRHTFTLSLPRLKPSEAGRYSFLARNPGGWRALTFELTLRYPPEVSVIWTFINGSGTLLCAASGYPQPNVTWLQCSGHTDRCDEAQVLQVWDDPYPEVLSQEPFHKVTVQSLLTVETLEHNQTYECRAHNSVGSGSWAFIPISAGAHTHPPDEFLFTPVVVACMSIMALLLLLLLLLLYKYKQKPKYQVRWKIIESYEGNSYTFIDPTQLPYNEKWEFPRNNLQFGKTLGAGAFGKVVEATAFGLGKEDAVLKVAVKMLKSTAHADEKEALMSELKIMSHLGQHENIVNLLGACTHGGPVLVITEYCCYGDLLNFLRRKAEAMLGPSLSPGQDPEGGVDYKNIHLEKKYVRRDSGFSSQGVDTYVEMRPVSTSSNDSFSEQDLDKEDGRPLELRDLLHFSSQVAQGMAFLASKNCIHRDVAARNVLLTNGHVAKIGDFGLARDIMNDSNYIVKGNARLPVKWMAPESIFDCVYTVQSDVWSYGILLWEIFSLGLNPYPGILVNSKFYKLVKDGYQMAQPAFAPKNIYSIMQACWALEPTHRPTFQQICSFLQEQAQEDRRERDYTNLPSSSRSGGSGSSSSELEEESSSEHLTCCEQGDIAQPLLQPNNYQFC
Procedure: The lysate was then transferred to total CSF-1R antibody coated 96-well plates that had already been blocked with 3% Blocker A from Mesoscale discovery (MSD) for 2 hours and washed afterwards. Lysates were incubated overnight at 4° C. and the plates were then washed 4× with MSD Tris Wash Buffer. […] The plates were read on the Sector 6000 instrument (MSD). Raw data was imported in Abase and EC50s calculated with XL-fit data analysis software.

[3] = molecular target: T3, kinase domain of cKIT (Homo sapiens, UniProt P10721); assay: Inhibition of cKIT kinase signaling in an in vitro biochemical assay (alphascreen); conditions: tested at about 1 μM; for inhibition at 1 µM: read-out: cKit percent inhibition
T3 construct: The kinase domain of cKIT was assayed in 50 mM Hepes; purchased Upstate 14-559
T3 sequence (P10721 589-937 limits assumed): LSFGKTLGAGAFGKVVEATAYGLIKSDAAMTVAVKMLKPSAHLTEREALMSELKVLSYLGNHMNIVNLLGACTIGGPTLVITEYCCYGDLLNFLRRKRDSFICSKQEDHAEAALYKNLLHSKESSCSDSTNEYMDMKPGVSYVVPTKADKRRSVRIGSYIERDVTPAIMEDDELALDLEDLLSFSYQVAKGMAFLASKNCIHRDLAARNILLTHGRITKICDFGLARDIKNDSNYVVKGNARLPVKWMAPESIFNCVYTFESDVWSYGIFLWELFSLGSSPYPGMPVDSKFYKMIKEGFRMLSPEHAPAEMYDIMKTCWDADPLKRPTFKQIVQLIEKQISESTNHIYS

[4] = molecular target: T4, kinase domain of PDGFRβ (Homo sapiens, UniProt P09619); assay: Inhibition of PDGFRb kinase signaling in an in vitro biochemical assay (alphascreen); conditions: tested at about 1 μM; for inhibition at 1 µM: read-out: PDGFRβ percent inhibition
T4 construct: The kinase domain of PDGFRβ was assayed in 50 mM Hepes; purchased Invitrogen P3082
T4 sequence (P09619 600-962 limits assumed): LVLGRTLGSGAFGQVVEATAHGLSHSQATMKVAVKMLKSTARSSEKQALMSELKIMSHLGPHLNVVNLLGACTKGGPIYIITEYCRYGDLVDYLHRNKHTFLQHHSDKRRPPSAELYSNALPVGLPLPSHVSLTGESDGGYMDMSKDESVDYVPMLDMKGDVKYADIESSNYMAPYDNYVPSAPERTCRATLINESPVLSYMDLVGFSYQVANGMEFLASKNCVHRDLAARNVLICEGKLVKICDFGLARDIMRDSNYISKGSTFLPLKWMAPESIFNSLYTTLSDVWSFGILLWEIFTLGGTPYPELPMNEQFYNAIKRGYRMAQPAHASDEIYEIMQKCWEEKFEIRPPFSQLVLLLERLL

[5] = tested on: MNFS60 (murine AML cells); assay: Cell viability assay in MCSF dependent MNFS60 cells (Cell Titer Glo); type: cell-based; conditions: tested at about 1 μM; for inhibition at 1 µM: Mus musculus, read-out: M-NFS-60 CP percent inhibition
In short: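 3-fold DMSO dilution series (500× stocks); MCSF 10 ng/ml final; 72 hrs, 37° C., 5% CO2; CellTiter-Glo read-out; n=3; EC50 fitted.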

Compound	inhibition at 1 µM [1] [%]	inhibition at 1 µM ([2]; HEK293H cells) [%]	inhibition at 1 µM [3] [%]	inhibition at 1 µM [4] [%]	inhibition at 1 µM ([5]; MCSF dependent MNFS60 cells) [%]	further results
Cc1cnc(-c2cc(Oc3ccc4nc(NCC5CCCCC5)oc4c3)ccn2)[nH]1 [Compound 109, Cyclohexylmethyl-{6-[2-(5-methyl-1H-imidazol-2-yl)-pyridin-4-yloxy]-benzooxazol-2-yl}-amine]	100	90	53	75	–	inhibition at 1 µM ([5]; MNFS60 cells): 81%
4-[2-(2-Chloro- benzylamino)-benzooxazol- 6-yloxy]-pyridin-2- carboxylic acid methylamide [Compound 8]	–	–	–	–	–	CSF-1R percent inhibition ([1]; compounds of Table 4): 100%; pCSF1R percent inhibition ([2]; compounds of Table 4): 98%; cKit percent inhibition ([3]; compounds of Table 4): 25%; PDGFRβ percent inhibition ([4]; compounds of Table 4): 35%; M-NFS-60 CP percent inhibition ([5]; compounds of Table 4): 100%
O[C@H]1Cc2ccccc2[C@H]1Nc1nc2ccc(Oc3ccnc4ccccc34)cc2s1 [Example 237, (1R,2S)-1-(6-(quinolin-4-yloxy)benzo[d]thiazol-2-ylamino)-2,3-dihydro-1H-inden-2-ol]	–	–	–	–	–	inhibition at 1 µM ([1]; compounds of Table 3): 100%; inhibition at 1 µM ([2]; compounds of Table 3): 94%; inhibition at 1 µM ([3]; compounds of Table 3): 24%; inhibition at 1 µM ([4]; compounds of Table 3): 13%; inhibition at 1 µM ([5]; compounds of Table 3): 100%
CNC(=O)c1cc(Oc2ccc3nc(N[C@@H]4CCCC[C@H]4O)sc3c2Cl)ccn1 [Example 378, 4-(7-chloro-2-((1R,2R)-2-hydroxycyclohexylamino)benzo[d]thiazol-6-yloxy)-N-methylpicolinamide]	100	87	62	43	90	–
CCc1nc(-c2cc(Oc3ccc4nc(N[C@@H]5CCCC[C@H]5O)sc4c3)ccn2)[nH]c1CC [Example 266, (1R,2R)-2-(6-(2-(4,5-diethyl-1H-imidazol-2-yl)pyridin-4-yloxy)benzo[d]thiazol-2-ylamino)cyclohexanol]	–	–	–	–	–	inhibition at 1 µM ([1]; compounds of Table 3): 100%; inhibition at 1 µM ([2]; compounds of Table 3): 94%; inhibition at 1 µM ([3]; compounds of Table 3): 18%; inhibition at 1 µM ([4]; compounds of Table 3): 21%; inhibition at 1 µM ([5]; compounds of Table 3): 100%
CNC(=O)c1cc(Oc2ccc3nc(NCc4cccc(Cl)c4Cl)oc3c2)ccn1 [Compound 77, 4-[2-(2,3-Dichloro-benzylamino)-benzooxazol-6-yloxy]-pyridine-2-carboxylic acid methylamide]	100	94	92	15	–	inhibition at 1 µM ([5]; MNFS60 cells): 79%
CC(C)[C@@H](CO)Nc1nc2ccc(Oc3ccnc(-c4cnn(C)c4)c3)cc2s1 [Example 352, (S)-3-methyl-2-(6-(2-(1-methyl-1H-pyrazol-4-yl)pyridin-4-yloxy)benzo[d]thiazol-2-ylamino)butan-1-ol]	100	97	45	74	100	–
CCNc1cc(Oc2ccc3nc(NCC4CCCCC4)sc3c2)ccn1 [Example 339, N-(cyclohexylmethyl)-6-(2-(ethylamino)pyridin-4-yloxy)benzo[d]thiazol-2-amine]	100	84	66	69	66	–
N#Cc1ccc2c(Oc3ccc4nc(N[C@@H]5CCCC[C@H]5O)sc4c3)ccnc2c1 [Example 222, 4-(2-((1R,2R)-2-hydroxycyclohexylamino)benzo[d]thiazol-6-yloxy)quinoline-7-carbonitrile]	–	–	–	–	–	inhibition at 1 µM ([1]; compounds of Table 3): 100%; inhibition at 1 µM ([2]; compounds of Table 3): 68%; inhibition at 1 µM ([3]; compounds of Table 3): 52%; inhibition at 1 µM ([4]; compounds of Table 3): 69%; inhibition at 1 µM ([5]; compounds of Table 3): 91%
O[C@@H]1CCCC[C@H]1Nc1nc2ccc(Oc3ccnc(-c4ccco4)c3)cc2s1 [Example 371, (1R,2R)-2-(6-(2-(furan-2-yl)pyridin-4-yloxy)benzo[d]thiazol-2-ylamino)cyclohexanol]	100	79	29	9	69	–
CNC(=O)c1cc(Oc2ccc3nc(NCc4ccccc4N4CCCCC4)oc3c2)ccn1 [Compound 118, 4-[2-(2-Piperidin-1-yl-benzylamino)-benzooxazol-6-yloxy]-pyridine-2-carboxylic acid methylamide]	100	69	95	49	–	inhibition at 1 µM ([5]; MNFS60 cells): 83%
CNC(=O)c1cc(Oc2ccc3nc(NCc4ccccc4-n4cccn4)oc3c2)ccn1 [Compound 105, 4-[2-(2-Pyrazol-1-yl-benzyl-amino)-benzooxazol-6-yloxy]-pyridine-2-carboxylic acid methylamide]	99	70	22	8	–	inhibition at 1 µM ([5]; MNFS60 cells): 49%
CNC(=O)c1cc(Oc2ccc3nc(N[C@H]4CCCN(S(C)(=O)=O)C4)sc3c2)ccn1 [Example 331, (S)-N-methyl-4-(2-(1-(methylsulfonyl)piperidin-3-ylamino)benzo[d]thiazol-6-yloxy)picolinamide]	100	79	41	10	68	–
Cn1cc(-c2cc(Oc3ccc4nc(N[C@@H]5c6ccccc6C[C@@H]5O)sc4c3)ccn2)cn1 [Example 348, (1R,2S)-1-(6-(2-(1-methyl-1H-pyrazol-4-yl)pyridin-4-yloxy)benzo[d]thiazol-2-ylamino)-2,3-dihydro-1H-inden-2-ol]	100	90	47	55	100	–
c1cc(Oc2ccc3nc(NCC4CCCCC4)sc3c2)cc(-c2cn[nH]c2)n1 [Example 341, 6-(2-(1H-pyrazol-4-yl)pyridin-4-yloxy)-N-(cyclohexylmethyl)benzo[d] thiazol-2-amine]	100	96	99	88	99	–
O[C@@H]1CCCC[C@H]1Nc1nc2ccc(Oc3ccnc(-c4cscn4)c3)cc2s1 [Compound 159]	–	–	–	–	–	inhibition at 1 µM ([1]; compounds of Table 3): 100%; inhibition at 1 µM ([2]; compounds of Table 3): 96%; inhibition at 1 µM ([3]; compounds of Table 3): 29%; inhibition at 1 µM ([4]; compounds of Table 3): 23%; inhibition at 1 µM ([5]; compounds of Table 3): 98%
O[C@@H]1CCCC[C@H]1Nc1nc2ccc(Oc3ccnc(-c4cn[nH]c4)c3)cc2s1 [Example 360, (1R,2R)-2-(6-(2-(1H-pyrazol-4-yl)pyridin-4-yloxy)benzo[d]thiazol-2-ylamino)cyclohexanol]	100	98	29	16	100	–
CNC(=O)c1cc(Oc2ccc3nc(N[C@H]4C[C@H]4c4ccccc4)sc3c2)ccn1 [Example 318, N-methyl-4-(2-((1S,2S)-2-phenylcyclopropylamino)benzo[d]thiazol-6-yloxy)picolinamide]	100	78	47	13	24	–
CNC(=O)c1cc(Oc2ccc3nc(NCCc4ccncc4)sc3c2)ccn1 [Example 316, N-methyl-4-(2-(2-(pyridin-4-yl)ethylamino)benzo[d]thiazol-6-yloxy)picolinamide]	99	98	8	12	41	–
